Experimental data published in article PMC11864979, “First-in-class ultralong-target-residence-time p38α inhibitors as a mitosis-targeted therapy for colorectal cancer” (Nature Cancer, 2025).
Where two headings read alike, the source gives them in different places.

Key:
Test in all cases: selectivity profiling in a panel of 340 wild-type kinases (Reaction Biology Europe)
Format in all cases: binding
340 wild-type kinases [1] = target: T1, 340 wild-type kinases (Homo sapiens, UniProt P08581)
T1 construct: purchased Reaction Biology Europe

340 wild-type kinases [2] = target: T2, 340 wild-type kinases (Homo sapiens, UniProt Q9HC98)
T2 construct: purchased Reaction Biology Europe

340 wild-type kinases [3] = target: T3, 340 wild-type kinases (Homo sapiens, UniProt P49841)
T3 construct: purchased Reaction Biology Europe

340 wild-type kinases [4] = target: T4, 340 wild-type kinases (Homo sapiens, UniProt O14733)
T4 construct: purchased Reaction Biology Europe
T4 sequence (O14733 1-419): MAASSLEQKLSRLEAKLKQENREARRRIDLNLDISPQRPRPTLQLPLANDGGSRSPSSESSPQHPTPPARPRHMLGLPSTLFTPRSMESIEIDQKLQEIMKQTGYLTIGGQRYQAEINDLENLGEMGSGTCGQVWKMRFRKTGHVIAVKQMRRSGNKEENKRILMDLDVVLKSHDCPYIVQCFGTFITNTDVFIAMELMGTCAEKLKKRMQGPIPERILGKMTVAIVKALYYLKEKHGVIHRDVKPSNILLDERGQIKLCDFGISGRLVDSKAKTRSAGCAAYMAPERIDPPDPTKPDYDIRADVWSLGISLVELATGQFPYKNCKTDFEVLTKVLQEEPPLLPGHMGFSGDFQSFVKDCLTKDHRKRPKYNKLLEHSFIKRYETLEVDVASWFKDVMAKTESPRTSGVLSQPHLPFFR

340 wild-type kinases [5] = target: T5, 340 wild-type kinases (Homo sapiens, UniProt P36507)
T5 construct: purchased Reaction Biology Europe

340 wild-type kinases [6] = target: T6, 340 wild-type kinases (Homo sapiens, UniProt Q8WTQ7)
T6 construct: purchased Reaction Biology Europe
T6 sequence (Q8WTQ7 1-553): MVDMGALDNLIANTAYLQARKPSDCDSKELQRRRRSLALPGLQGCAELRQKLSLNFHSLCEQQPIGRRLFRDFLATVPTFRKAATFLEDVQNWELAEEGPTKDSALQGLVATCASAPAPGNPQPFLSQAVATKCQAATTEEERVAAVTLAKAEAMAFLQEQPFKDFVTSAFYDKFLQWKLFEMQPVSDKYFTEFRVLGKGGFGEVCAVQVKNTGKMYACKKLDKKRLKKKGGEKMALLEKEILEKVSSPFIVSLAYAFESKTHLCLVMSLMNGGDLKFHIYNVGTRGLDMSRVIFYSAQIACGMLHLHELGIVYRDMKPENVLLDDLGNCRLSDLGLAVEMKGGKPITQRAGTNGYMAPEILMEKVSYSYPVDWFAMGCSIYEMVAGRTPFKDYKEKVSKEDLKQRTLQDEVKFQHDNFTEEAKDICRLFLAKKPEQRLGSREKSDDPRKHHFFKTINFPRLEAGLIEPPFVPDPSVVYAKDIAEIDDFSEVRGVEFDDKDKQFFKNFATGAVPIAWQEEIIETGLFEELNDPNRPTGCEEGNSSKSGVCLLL

340 wild-type kinases [7] = target: T7, 340 wild-type kinases (Homo sapiens, UniProt O43781)
T7 construct: purchased Reaction Biology Europe
T7 sequence (O43781 1-588): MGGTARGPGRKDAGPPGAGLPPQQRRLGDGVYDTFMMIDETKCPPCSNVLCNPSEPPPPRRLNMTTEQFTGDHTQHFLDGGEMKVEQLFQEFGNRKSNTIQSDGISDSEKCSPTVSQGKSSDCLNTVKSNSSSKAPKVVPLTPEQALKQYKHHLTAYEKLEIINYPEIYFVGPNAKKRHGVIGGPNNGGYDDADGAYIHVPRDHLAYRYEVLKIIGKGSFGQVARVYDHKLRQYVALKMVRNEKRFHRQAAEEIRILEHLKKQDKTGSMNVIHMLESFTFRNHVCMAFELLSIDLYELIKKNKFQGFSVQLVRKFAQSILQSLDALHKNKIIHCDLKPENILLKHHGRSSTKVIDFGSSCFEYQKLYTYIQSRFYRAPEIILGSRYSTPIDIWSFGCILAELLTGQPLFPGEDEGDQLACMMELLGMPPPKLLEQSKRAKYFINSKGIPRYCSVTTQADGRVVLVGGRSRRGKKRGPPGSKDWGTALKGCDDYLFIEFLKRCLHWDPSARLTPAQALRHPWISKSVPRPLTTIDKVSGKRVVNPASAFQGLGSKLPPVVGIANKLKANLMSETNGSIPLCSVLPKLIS

T5 sequence (P36507 whole entry): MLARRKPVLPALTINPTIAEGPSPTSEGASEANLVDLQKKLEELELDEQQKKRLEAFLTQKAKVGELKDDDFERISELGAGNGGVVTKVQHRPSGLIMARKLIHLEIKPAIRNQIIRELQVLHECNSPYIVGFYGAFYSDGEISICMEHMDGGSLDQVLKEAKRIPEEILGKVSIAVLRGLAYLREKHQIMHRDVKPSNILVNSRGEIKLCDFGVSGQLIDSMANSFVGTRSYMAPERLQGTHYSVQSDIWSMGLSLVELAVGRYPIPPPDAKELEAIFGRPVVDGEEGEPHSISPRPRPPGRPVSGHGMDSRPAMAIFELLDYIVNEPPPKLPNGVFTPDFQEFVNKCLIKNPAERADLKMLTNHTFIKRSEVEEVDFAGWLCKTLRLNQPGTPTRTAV
T3 sequence (P49841 whole entry): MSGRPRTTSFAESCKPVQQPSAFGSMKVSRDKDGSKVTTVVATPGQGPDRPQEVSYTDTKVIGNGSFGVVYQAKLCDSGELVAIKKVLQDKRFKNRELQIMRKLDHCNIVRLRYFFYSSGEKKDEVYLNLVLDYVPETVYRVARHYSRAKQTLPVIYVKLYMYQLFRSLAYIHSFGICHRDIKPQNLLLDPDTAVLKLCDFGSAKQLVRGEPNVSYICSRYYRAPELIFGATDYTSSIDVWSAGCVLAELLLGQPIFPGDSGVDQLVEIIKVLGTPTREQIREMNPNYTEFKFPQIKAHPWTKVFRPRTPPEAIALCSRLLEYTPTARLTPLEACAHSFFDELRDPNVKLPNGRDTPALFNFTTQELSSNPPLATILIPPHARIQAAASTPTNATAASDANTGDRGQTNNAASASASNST
T1 sequence (P08581 25-1390): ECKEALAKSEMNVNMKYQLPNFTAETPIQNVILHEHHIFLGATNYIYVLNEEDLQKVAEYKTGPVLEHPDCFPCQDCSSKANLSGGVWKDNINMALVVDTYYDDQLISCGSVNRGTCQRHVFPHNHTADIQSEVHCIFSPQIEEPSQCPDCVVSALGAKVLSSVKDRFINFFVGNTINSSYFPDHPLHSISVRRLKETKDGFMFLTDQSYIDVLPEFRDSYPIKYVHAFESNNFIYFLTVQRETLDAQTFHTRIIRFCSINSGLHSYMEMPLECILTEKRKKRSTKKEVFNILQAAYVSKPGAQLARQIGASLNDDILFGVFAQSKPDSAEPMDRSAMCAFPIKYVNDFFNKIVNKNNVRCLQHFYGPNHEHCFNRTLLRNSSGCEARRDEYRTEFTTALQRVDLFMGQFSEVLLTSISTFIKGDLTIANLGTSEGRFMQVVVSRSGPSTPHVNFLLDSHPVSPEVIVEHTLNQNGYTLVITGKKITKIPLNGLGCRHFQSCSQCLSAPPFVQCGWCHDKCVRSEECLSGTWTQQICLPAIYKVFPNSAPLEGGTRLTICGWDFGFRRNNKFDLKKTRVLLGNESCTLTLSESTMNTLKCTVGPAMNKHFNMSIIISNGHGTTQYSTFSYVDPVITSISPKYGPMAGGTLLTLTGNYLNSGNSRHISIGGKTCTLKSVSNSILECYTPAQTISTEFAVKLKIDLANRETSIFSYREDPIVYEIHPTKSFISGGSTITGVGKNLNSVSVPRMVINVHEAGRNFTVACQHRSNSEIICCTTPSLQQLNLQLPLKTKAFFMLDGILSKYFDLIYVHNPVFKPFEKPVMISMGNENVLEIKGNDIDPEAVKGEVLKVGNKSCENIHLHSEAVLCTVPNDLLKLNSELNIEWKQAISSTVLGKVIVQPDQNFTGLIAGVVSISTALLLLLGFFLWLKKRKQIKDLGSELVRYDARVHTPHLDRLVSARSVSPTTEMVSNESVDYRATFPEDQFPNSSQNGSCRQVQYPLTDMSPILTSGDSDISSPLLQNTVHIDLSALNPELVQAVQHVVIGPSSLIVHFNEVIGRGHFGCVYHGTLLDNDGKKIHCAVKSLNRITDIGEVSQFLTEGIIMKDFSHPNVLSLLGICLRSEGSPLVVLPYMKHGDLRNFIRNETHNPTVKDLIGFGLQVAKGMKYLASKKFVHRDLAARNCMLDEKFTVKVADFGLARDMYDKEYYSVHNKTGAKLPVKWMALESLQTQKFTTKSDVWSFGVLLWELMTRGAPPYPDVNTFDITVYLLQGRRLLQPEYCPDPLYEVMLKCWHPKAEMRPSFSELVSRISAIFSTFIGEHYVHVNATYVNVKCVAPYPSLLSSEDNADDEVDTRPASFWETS
T2 sequence (Q9HC98 whole entry): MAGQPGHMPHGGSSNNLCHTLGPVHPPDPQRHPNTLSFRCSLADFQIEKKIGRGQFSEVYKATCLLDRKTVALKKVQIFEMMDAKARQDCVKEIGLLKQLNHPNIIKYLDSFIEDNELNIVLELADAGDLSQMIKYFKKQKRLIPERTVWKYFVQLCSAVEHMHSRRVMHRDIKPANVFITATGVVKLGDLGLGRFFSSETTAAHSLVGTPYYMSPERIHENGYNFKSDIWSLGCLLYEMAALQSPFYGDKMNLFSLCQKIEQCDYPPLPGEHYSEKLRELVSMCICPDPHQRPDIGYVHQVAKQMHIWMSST

CNC(=O)c1ccc2c(c1)C(=O)c1ccc(Nc3ccc(F)c(NC(=O)C4CC4)c3)cc1CC2 [Compound 2015]
remaining activity at 0.2 µM (340 wild-type kinases [1]; 0.2 µM 2015, read-out: MET residual activity): 96.7% | remaining activity at 1 µM (340 wild-type kinases [1]; 1 µM 2015, read-out: MET residual activity): 93.5% | remaining activity at 0.2 µM (340 wild-type kinases [1]; MET, 0.2 µM, read-out: residual activity): 96.7% | remaining activity at 1 µM (340 wild-type kinases [1]; MET, 1 µM, read-out: residual activity): 93.5% | remaining activity at 0.2 µM (340 wild-type kinases [2]; 0.2 µM 2015, read-out: NEK6 residual activity): 95.6% | remaining activity at 1 µM (340 wild-type kinases [2]; 1 µM 2015, read-out: NEK6 residual activity): 99.3% | remaining activity at 0.2 µM (340 wild-type kinases [2]; NEK6, 0.2 µM, read-out: residual activity): 95.6% | remaining activity at 1 µM (340 wild-type kinases [2]; NEK6, 1 µM, read-out: residual activity): 99.3% | remaining activity at 0.2 µM (340 wild-type kinases [3]; 0.2 µM 2015, read-out: GSK3beta residual activity): 98.7% | remaining activity at 1 µM (340 wild-type kinases [3]; 1 µM 2015, read-out: GSK3beta residual activity): 86.4% | remaining activity at 0.2 µM (340 wild-type kinases [3]; GSK3beta, 0.2 µM, read-out: residual activity): 98.7% | remaining activity at 1 µM (340 wild-type kinases [3]; GSK3beta, 1 µM, read-out: residual activity): 86.3% | remaining activity at 0.2 µM (340 wild-type kinases [4]; 0.2 µM 2015, read-out: MKK7 residual activity): 102% | remaining activity at 1 µM (340 wild-type kinases [4]; 1 µM 2015, read-out: MKK7 residual activity): 117% | remaining activity at 0.2 µM (340 wild-type kinases [4]; MKK7, 0.2 µM, read-out: residual activity): 102% | remaining activity at 1 µM (340 wild-type kinases [4]; MKK7, 1 µM, read-out: residual activity): 117% | remaining activity at 0.2 µM (340 wild-type kinases [5]; 0.2 µM 2015, read-out: MEK2 residual activity): 103% | remaining activity at 1 µM (340 wild-type kinases [5]; 1 µM 2015, read-out: MEK2 residual activity): 69.7% | remaining activity at 0.2 µM (340 wild-type kinases [5]; MEK2, 0.2 µM, read-out: residual activity): 103% | remaining activity at 1 µM (340 wild-type kinases [5]; MEK2, 1 µM, read-out: residual activity): 69.7% | remaining activity at 0.2 µM (340 wild-type kinases [6]; 0.2 µM 2015, read-out: GRK7 residual activity): 123% | remaining activity at 1 µM (340 wild-type kinases [6]; 1 µM 2015, read-out: GRK7 residual activity): 106% | remaining activity at 0.2 µM (340 wild-type kinases [6]; GRK7, 0.2 µM, read-out: residual activity): 123% | remaining activity at 1 µM (340 wild-type kinases [6]; GRK7, 1 µM, read-out: residual activity): 106% | remaining activity at 0.2 µM (340 wild-type kinases [7]; 0.2 µM 2015, read-out: DYRK3 residual activity): 104% | remaining activity at 1 µM (340 wild-type kinases [7]; 1 µM 2015, read-out: DYRK3 residual activity): 107% | remaining activity at 0.2 µM (340 wild-type kinases [7]; DYRK3, 0.2 µM, read-out: residual activity): 104% | remaining activity at 1 µM (340 wild-type kinases [7]; DYRK3, 1 µM, read-out: residual activity): 107%
